Laboratory results taken from ChEMBL document CHEMBL5576149, “Discovery of Potent STT3A/B Inhibitors and Assessment of Their Multipathogen Antiviral Potential and Safety” (J Med Chem, 2024).
Converted amounts (≈) assume the structure as drawn. The source made the active and inactive calls. No cut-off for these calls is given here.

Columns and labels:
[1] = MRT in CD1 mouse at 2 mg/kg,po or 1 mg/kg,iv administrated upto 60 mins by LC-MS/MS analysis; assay type: ADME, organism-based; conditions: in vivo
[2] = Unbound clearance in CD1 mouse at 2 mg/kg,po or 1 mg/kg,iv administrated upto 60 mins by LC-MS/MS analysis; assay type: ADME, organism-based; conditions: in vivo, 1 h
Mus musculus [3] = test: In vivo inhibition of STT3A/STT3B in C57BL/6 mouse assessed as upregulation of DERL3 expression in blood at 0.1 to 10 mg/kg,po measured after 6 hrs by RT-qPCR analysis; assay type: functional, organism-based; conditions: dose 0.1-10 mg/kg
Mus musculus [4] = test: In vivo inhibition of STT3A/STT3B in C57BL/6 mouse assessed as upregulation of […] expression in lung at 0.1 to 10 mg/kg,po measured after 6 hrs by RT-qPCR analysis; assay type: functional, organism-based; conditions: dose 0.1-10 mg/kg
Mus musculus [5] = test: In vivo inhibition of STT3A/STT3B in C57BL/6 mouse assessed as upregulation of SDF2L1 expression in blood at 0.1 to 10 mg/kg,po measured after 6 hrs by RT-qPCR analysis; assay type: functional, organism-based; conditions: dose 0.1-10 mg/kg
[6] = Unbound clearance in human liver microsomes at 0.5 uM incubated upto 45 mins; assay type: ADME, Microsome; conditions: 0.75 h
Mus musculus [7] = test: In vivo inhibition of STT3A/STT3B in C57BL/6 mouse assessed as upregulation of […] expression in blood at 0.1 to 10 mg/kg,po measured after 6 hrs by RT-qPCR analysis; assay type: functional, organism-based; conditions: dose 0.1-10 mg/kg
Mus musculus [8] = test: In vivo inhibition of STT3A/STT3B in C57BL/6 mouse assessed as upregulation of MANF expression in blood at 0.1 to 10 mg/kg,po measured after 6 hrs by RT-qPCR analysis; assay type: functional, organism-based; conditions: dose 0.1-10 mg/kg
[9] = Chromatographic hydrophobicity index, logD of the compound at pH 7.4; assay type: physicochemical; conditions: buffer
Mus musculus [10] = test: In vivo inhibition of STT3A/STT3B in C57BL/6 mouse assessed as upregulation of MANF expression in lung at 0.1 to 10 mg/kg,po measured after 6 hrs by RT-qPCR analysis; assay type: functional, organism-based; conditions: dose 0.1-10 mg/kg
Mus musculus [11] = test: In vivo inhibition of STT3A/STT3B in C57BL/6 mouse assessed as upregulation of SDF2L1 expression in lung at 0.1 to 10 mg/kg,po measured after 6 hrs by RT-qPCR analysis; assay type: functional, organism-based; conditions: dose 0.1-10 mg/kg
[12] = Inhibition of STT3A/STT3B mediated N-linked glycosylation in human H1-HeLa cells stably transduced with ERluc by measuring effective concentration of inhibition incubated for 18 hrs by One-Glo luciferase reporter assay; assay type: cell-based
[13] = Bioavailability in CD1 mouse at 2 mg/kg,po or 1 mg/kg,iv administrated upto 60 mins by LC-MS/MS analysis; assay type: ADME, organism-based; conditions: in vivo
[14] = Inhibition of STT3A/STT3B mediated N-linked glycosylation in STT3A knockout human H1-HeLa cells stably transduced with Halo3N-ER sequence by measuring effective concentration incubated for 24 hrs by Western blotting analysis; assay type: cell-based
Mus musculus [15] = test: In vivo inhibition of STT3A/STT3B in C57BL/6 mouse assessed as upregulation of DERL3 expression in lung at 0.1 to 10 mg/kg,po measured after 6 hrs by RT-qPCR analysis; assay type: functional, organism-based; conditions: dose 0.1-10 mg/kg
[16] = Inhibition of STT3A/STT3B mediated N-linked glycosylation in STT3B knockout human H1-HeLa cells stably transduced with Halo3N-ER sequence by measuring effective concentration incubated for 24 hrs by Western blotting analysis; assay type: cell-based
[17] = Unbound clearance in mouse liver microsomes at 0.5 uM incubated upto 45 mins; assay type: ADME, Microsome; conditions: 0.75 h
[18] = Cytotoxicity against human Hepatocyte cultured as 3D spheroids incubated for 14 days by CellTiter-Glo luminescence assay; assay type: toxicity, cell-based; conditions: hepatocytes cultured as 3D spheroids
[19] = Volume of distribution at steady state in CD1 mouse at 2 mg/kg,po or 1 mg/kg,iv administrated upto 60 mins by LC-MS/MS analysis; assay type: ADME, organism-based; conditions: in vivo, 1 h
[20] = Solubility of compound in FaSSIF; assay type: ADME
Influenza A virus [21] = test: Antiviral activity against influenza A virus H1N1 A/Puerto Rico/8/1934 infected in MDCK cells assessed as reduction in viral proliferation incubated for 24 hrs by FFU assay; assay type: functional, organism-based; conditions: H1N1 A/Puerto Rico/8/1934, MDCK
A549 [22] = test: Cytotoxicity against human A549 cells by fluorescent cell imaging assay; assay type: functional
Human coronavirus 229E = test: Antiviral activity against Human coronavirus 229E infected in human MRC5 cells assessed as reduction in viral growth incubated for 68 hrs by CellTiter-Glo luminescence assay; assay type: functional, organism-based; conditions: MRC5, 68 h
[23] = Cardiotoxicity in human iPSC-CM cells assessed as increase in field potential duration at 10 uM incubated for 1 hr by multi-electrode array analysis; assay type: toxicity, cell-based
[24] = Cardiotoxicity in human iPSC-CM cells assessed as decrease in spike amplitude at 370 nM incubated for 48 hr by multi-electrode array analysis; assay type: toxicity, cell-based; conditions: 0.37 µM
SARS-CoV-2 = test: Antiviral activity against SARS-CoV-2 infected in human A549 cells assessed as reduction in viral growth incubated for 24 hrs by Nano-Glo reagent based analysis; assay type: functional, organism-based; conditions: Severe acute respiratory syndrome coronavirus 2, A549, 24 h
[25] = Cardiotoxicity in human iPSC-CM cells assessed as decrease in beat period at 1 uM incubated for 48 hr by multi-electrode array analysis; assay type: toxicity, cell-based
[26] = Neurotoxicity in human iPSC cells co-cultured with human astrocyte assessed as reduction in neuronal firing rate at 0.37 to 30 uM incubated for 1 hr by multi-electrode array analysis; assay type: toxicity, cell-based; conditions: dose 0.37-30 µM
[27] = molecular target: Sodium channel protein type 5 subunit alpha (Homo sapiens, UniProt Q14524); test: Inhibition of Nav1.5 (unknown origin); assay type: toxicity
Sequence of Sodium channel protein type 5 subunit alpha (Q14524 whole entry): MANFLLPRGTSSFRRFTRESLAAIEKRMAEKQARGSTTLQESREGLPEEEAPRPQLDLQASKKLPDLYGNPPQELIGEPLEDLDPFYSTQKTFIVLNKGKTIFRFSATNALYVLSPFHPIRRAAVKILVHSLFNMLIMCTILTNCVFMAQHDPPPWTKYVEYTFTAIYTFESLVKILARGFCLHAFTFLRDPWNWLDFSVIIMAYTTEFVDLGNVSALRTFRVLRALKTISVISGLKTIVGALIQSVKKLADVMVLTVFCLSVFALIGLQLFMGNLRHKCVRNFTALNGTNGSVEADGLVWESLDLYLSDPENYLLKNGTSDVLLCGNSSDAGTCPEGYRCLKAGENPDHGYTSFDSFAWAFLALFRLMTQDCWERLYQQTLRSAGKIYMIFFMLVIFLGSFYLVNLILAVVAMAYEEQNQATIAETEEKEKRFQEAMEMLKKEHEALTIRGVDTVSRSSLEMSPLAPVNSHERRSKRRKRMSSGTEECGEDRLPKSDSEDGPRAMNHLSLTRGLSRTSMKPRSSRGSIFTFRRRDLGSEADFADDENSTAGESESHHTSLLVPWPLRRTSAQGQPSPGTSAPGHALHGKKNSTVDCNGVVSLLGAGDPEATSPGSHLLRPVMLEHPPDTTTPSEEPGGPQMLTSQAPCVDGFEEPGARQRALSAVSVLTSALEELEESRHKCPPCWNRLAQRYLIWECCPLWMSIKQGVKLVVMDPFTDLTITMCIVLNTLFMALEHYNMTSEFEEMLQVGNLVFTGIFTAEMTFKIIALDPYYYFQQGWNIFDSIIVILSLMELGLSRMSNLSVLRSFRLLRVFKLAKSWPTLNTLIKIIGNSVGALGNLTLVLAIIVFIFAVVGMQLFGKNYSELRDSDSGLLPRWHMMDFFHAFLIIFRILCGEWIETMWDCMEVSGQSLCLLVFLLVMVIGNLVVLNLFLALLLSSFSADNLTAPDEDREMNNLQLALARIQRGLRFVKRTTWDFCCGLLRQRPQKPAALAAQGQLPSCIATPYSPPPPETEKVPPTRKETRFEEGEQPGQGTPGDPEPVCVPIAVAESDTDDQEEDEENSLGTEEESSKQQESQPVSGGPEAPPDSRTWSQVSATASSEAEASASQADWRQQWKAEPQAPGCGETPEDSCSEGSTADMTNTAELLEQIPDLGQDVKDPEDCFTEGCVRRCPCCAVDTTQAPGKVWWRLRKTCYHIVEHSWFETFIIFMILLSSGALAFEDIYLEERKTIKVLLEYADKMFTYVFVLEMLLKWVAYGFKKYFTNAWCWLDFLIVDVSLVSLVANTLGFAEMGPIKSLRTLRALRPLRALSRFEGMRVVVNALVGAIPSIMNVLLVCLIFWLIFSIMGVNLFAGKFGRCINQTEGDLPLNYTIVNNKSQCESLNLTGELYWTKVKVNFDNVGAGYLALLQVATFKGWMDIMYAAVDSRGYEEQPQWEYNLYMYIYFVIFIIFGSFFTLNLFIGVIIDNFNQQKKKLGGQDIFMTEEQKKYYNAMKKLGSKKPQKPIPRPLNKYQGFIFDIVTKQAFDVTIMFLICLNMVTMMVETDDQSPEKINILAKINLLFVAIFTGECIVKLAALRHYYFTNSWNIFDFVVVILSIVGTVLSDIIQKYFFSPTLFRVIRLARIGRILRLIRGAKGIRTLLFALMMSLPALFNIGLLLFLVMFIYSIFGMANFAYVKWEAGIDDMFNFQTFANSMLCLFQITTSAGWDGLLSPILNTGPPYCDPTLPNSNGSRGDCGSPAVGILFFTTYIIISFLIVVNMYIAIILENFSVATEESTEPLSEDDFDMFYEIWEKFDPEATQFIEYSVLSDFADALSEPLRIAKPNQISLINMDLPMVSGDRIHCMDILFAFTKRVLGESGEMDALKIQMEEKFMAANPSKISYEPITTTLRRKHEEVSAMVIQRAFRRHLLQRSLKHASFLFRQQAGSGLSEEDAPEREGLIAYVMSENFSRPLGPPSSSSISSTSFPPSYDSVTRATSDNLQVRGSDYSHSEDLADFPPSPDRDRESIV

[28] = Cardiotoxicity in human iPSC-CM cells assessed as increase in field potential duration at 370 nM incubated for 48 hr by multi-electrode array analysis; assay type: toxicity, cell-based; conditions: 0.37 µM
Human respirovirus 3 = test: Antiviral activity against Human parainfluenza virus 3 JS infected in human A549 cells assessed as reduction in viral proliferation incubated for 44 hrs by Hoechst dye based fluorescence analysis; assay type: functional, organism-based; conditions: Human respirovirus 3, JS, A549, 44 h
H1-HeLa [29] = test: Inhibition of STT3A/STT3B in human H1-HeLa cells assessed as upregulation of SDF2L1 gene expression incubated for 24 hrs; assay type: cell-based
H1-HeLa [30] = test: Inhibition of STT3A/STT3B in human H1-HeLa cells assessed as upregulation of […] gene expression incubated for 24 hrs; assay type: cell-based
H1-HeLa [31] = test: Inhibition of STT3A/STT3B in human H1-HeLa cells assessed as upregulation of DERL3 gene expression incubated for 24 hrs; assay type: cell-based
[32] = Cardiotoxicity in human iPSC-CM cells assessed as decrease in spike amplitude at 3 uM incubated for 1 hr by multi-electrode array analysis; assay type: toxicity, cell-based; parameters: scale not given: the % may be the effect or the level left
[33] = molecular target: Voltage-dependent L-type calcium channel subunit alpha-1C (Homo sapiens, UniProt Q13936); test: Inhibition of Cav1.2 (unknown origin) expressed in HEK cells by manual patch clamp assay; assay type: toxicity, cell-based
[34] = Neurotoxicity in human iPSC cells co-cultured with human astrocyte assessed as […] incubated for 1 hr by multi-electrode array analysis; assay type: toxicity, cell-based; conditions: iPSC cells co-cultured with astrocytes
Influenza A virus [35] = test: Antiviral activity against influenza A virus H1N1 A/Puerto Rico/8/1934 infected in MDCK cells assessed as reduction in viral replication measured after 3 hrs of post-infection by RT-qPCR analysis relative to control; assay type: functional; parameters: scale not given: the % may be the effect or the level left
[36] = Unbound clearance in rat liver microsomes at 0.5 uM incubated upto 45 mins; assay type: ADME, Microsome; conditions: 0.75 h
[37] = Neurotoxicity in human iPSC cells co-cultured with human astrocyte assessed as inhibition of cell growth at 300 nM incubated for 48 hr by multi-electrode array analysis relative to control; assay type: toxicity, cell-based; conditions: iPSC cells co-cultured with astrocytes
[38] = Cardiotoxicity in human iPSC-CM cells assessed as decrease in beat period at 30 uM incubated for 1 hr by multi-electrode array analysis; assay type: toxicity, cell-based
[39] = Cytotoxicity against human MRC5 cells by luminescence-based cell viability assay; assay type: toxicity
A549 [40] = test: Cytotoxicity against human A549 cells; assay type: functional
H1-HeLa [41] = test: Inhibition of STT3A/STT3B in human H1-HeLa cells assessed as upregulation of MANF gene expression incubated for 24 hrs; assay type: cell-based
[42] = molecular target: T1, Voltage-gated inwardly rectifying potassium channel KCNH2 (Homo sapiens, UniProt Q12809); test: Inhibition of hERG expressed in CHO cells by QPatch voltage clamp assay; assay type: toxicity, cell-based
T1 sequence (Q12809 whole entry): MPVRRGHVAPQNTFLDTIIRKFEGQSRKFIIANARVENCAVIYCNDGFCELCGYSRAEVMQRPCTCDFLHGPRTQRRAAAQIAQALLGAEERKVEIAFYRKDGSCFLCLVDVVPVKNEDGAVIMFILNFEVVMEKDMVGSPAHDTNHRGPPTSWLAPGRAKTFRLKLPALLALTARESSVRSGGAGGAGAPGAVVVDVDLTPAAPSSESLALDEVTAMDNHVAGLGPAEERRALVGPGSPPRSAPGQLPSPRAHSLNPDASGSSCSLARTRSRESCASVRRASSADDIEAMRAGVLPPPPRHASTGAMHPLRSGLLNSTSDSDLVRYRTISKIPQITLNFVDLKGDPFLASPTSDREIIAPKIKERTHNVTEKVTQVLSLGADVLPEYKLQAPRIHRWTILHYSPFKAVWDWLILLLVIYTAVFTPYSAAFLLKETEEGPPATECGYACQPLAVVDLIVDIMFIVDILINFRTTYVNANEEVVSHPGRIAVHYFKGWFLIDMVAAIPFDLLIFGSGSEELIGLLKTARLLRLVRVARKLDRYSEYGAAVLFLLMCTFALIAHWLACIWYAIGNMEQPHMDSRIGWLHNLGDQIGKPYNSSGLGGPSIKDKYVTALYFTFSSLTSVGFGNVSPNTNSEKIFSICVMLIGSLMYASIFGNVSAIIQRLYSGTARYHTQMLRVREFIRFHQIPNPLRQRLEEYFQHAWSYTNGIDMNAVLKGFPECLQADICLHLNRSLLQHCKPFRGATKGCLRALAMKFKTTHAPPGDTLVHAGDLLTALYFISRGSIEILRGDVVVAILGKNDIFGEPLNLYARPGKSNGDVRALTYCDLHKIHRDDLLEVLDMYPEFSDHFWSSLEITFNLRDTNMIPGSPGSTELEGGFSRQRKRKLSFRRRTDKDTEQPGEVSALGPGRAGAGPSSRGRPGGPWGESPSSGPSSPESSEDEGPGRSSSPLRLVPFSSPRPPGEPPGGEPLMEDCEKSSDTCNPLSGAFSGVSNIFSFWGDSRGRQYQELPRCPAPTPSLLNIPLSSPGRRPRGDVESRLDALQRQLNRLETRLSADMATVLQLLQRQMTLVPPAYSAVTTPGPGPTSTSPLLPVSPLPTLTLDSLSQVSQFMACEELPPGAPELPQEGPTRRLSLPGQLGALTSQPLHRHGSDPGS

Influenza A virus [43] = test: Antiviral activity against influenza A virus H1N1 A/Puerto Rico/8/1934 infected in MDCK cells assessed as reduction in viral replication measured after 30 hrs of post-infection by RT-qPCR analysis relative to control; assay type: functional; parameters: scale not given: the % may be the effect or the level left
[44] = Cardiotoxicity in human iPSC-CM cells assessed as decrease in spike amplitude incubated for 48 hr by multi-electrode array analysis; assay type: toxicity, cell-based
[45] = Cardiotoxicity in human iPSC-CM cells assessed as increase in field potential duration incubated for 48 hr by multi-electrode array analysis; assay type: toxicity, cell-based
[46] = molecular target: T1, Voltage-gated inwardly rectifying potassium channel KCNH2; test: Inhibition of HA-tagged hERG expressed in human U2OS cells assessed as reduction in ERG protein at 3 uM incubated for 24 hrs by Western blotting analysis; assay type: toxicity, cell-based

C[S@@](=N)(=O)c1ccc(N2CC[C@H](O)C2)c(-c2cc3ccccc3[nH]2)c1
MRT [1]: 3 h
CL free [2]: 38 mL/min/kg
inhibition (Mus musculus [3]): Active
inhibition (Mus musculus [4]): Active
inhibition (Mus musculus [5]): Active
CL free [6]: < 12 mL/min/kg
inhibition (Mus musculus [7]): Active
inhibition (Mus musculus [8]): Active
chromatographic logD [9]: 2.7
inhibition (Mus musculus [10]): Active
inhibition (Mus musculus [11]): Active
EC50 [12]: 15 nM
bioavailability [13]: 62%
EC50 [14]: 28 nM
inhibition (Mus musculus [15]): Active
EC50 [16]: 10 nM
CL free [17]: 30 mL/min/kg
IC50 at 14 days [18]: < 1200 nM
Vdss [19]: 2 L/kg
solubility [20]: 767 µg/mL (≈ 2160 µM)

CN(C)S(=O)(=O)c1ccc(N2CC[C@H](O)C2)c(-c2cc3ccccc3[nH]2)c1
EC50 (Influenza A virus [21]): 297 nM
CC50 (A549 [22]): 831 nM
EC50 (Human coronavirus 229E): 30 nM
Activity [23]: 20%
Activity [24]: Toxic
EC50 (SARS-CoV-2): 62 nM
Activity [25]: Toxic
Activity [26]: Toxic
IC50 [27]: ~20000 nM
MRT [1]: 1 h
CL free [2]: 2268 mL/min/kg
Activity [28]: Toxic
EC50 (Human respirovirus 3): 187 nM
inhibition (H1-HeLa [29]): Active
inhibition (H1-HeLa [30]): Active
inhibition (H1-HeLa [31]): Active
CL free [6]: 158 mL/min/kg
Activity [32]: 20%
chromatographic logD [9]: 4.8
IC50 [33]: > 100000 nM
IC50 at 1 hr [34]: 23000 nM
Activity (Influenza A virus [35]): >90%
EC50 [12]: 23 nM
bioavailability [13]: 28%
EC50 [14]: 63 nM
EC50 [16]: 41 nM
CL free [36]: 3761 mL/min/kg
inhibition at 48 h, 0.3 µM [37]: 75%
Activity [38]: Toxic
IC50 at 14 days [18]: < 1200 nM
CC50 [39]: 984 nM
Vdss [19]: 4.3 L/kg
CC50 (A549 [40]): 2750 nM
inhibition (H1-HeLa [41]): Active
solubility [20]: 53 µg/mL (≈ 137 µM)
IC50 [42]: ~20000 nM
Activity (Influenza A virus [43]): 60%

C=C[C@H]1C[N@@]2CC[C@H]1C[C@@H]2[C@@H](O)c1ccnc2ccc(OC)cc12 [QUINIDINE]
Activity [44]: Non-Toxic
Activity [45]: Non-Toxic

O=C([C@@H]1CCN1S(=O)(=O)c1ccc(N2CCC(F)(F)C2)c(-c2cc3ccccc3[nH]2)c1)N1CCOCC1
inhibition (INH) [46]: Active
CL free [6]: > 2851 mL/min/kg
chromatographic logD [9]: 5.3
EC50 [12]: 5 nM
CL free [36]: > 4854 mL/min/kg
IC50 at 14 days [18]: < 1200 nM
